Measured values as given in patent US6727288B2, “Method for treating bone fracture” (Juneng Industry Co., Ltd., priority 2001, dated 2004).
Marks after values point to notes of the source that are not given here.

Tests used:
[1] = system: osteoblasts (OB2); test: Mineralization function of OB2, alizarin red nodule count; assay type: cell-based, SD rat; conditions: for Number of mineralization nodules: 14 days, alizarin red, n = 4
Protocol: (§1) 1) Sampling: after a newborn (within 24 hours) SD rat was disinfected, the calvaria were excised under sterilization conditions. The calvaria were predigested by 0.25% trypsin for 10-15 minutes firstly, then oscillated and digested by 0.1% collagenase II at 37° C. for 60 minutes. The cells were collected by centrifugation at 1000 rpm.
(§2) 2) Cell culture: The isolated cells were inoculated into culture flask at a concentration of 1×10^4/cm^2, wherein the culture solution is 10% of NCS-MEM. The cells were cultured in an incubator with 5% CO2 at 37° C., then passaged until half confluence. The second generation of secondary cells (OB2) were tested for pharmacodynamics.
(§3) 3) Medicines: Each test medicine was formulated at a concentration of 0.1 mol/L, and sterilized by high pressure for later use.
(§4) 2.24 g of calcium gluconate was dissolved in 50 ml of deionized water at room temperature. The control group was deionized water.
OB2 was inoculated into 6 well COSTOR culture plate at a density of 5×10^4 per well. 24 hours later, the above culture solution was replaced by culture solution containing medicines. Then the solution was changed every 48 hours. 14 days later, the cells were fixed and stained with alizarin red.

[2] = system: ALP activity of osteoblast (OB2); test: ALP activity of OB2 cell lysates, para-nitrobenzene phosphate method; assay type: cell-based, SD rat; conditions: 10^−3 mol/L; for ALP activity of osteoblast: n = 4
Protocol: as §1, §2, §3, §4
OB2 was inoculated into 24 well COSTOR culture plate at a density of 2×10^4 per well. 24 hours later, the above culture solution was replaced by medium containing medicines. Then the culture solution was changed every 48 hours until confluence of cells was reached. ALP activity of cell lysates was measured by para-nitrobenzene phosphate method. Content of protein in cell lysates was measured by Coomassie brilliant blue method.

[3] = system: osteoblasts (OB2); test: Osteoblast (OB2) proliferation, MTT method; assay type: cell-based, SD rat; conditions: for A570 (X ± SD): 72 hours, MTT, n = 4
Protocol: as §1, §2, §3, §4
OB2 were inoculated into 24 well COSTOR culture plate at a density of 6×10^3 per well. 24 hours later, the above culture solution was replaced by culture solution containing varying concentrations of medicines ranging from 10^−9 to 10^−3 mol/L. 72 hours after adding medicines, the cells were tested through Labsystems Multiskan MS (Finland) )ELISA analyzer by MTT method. OD value at 570 nm was used to reflect cell proliferation.

[4] = system: α-COLI mRNA in osteoblast (OB2); test: mRNA expression of α-COLI in osteoblasts by quantitative RT-PCR; assay type: cell-based, SD rat; conditions: 10^−3 mol/L; for level of α-COLI mRNA compared with control group: quantitative RT-PCR, in words
Protocol: 1. Cell Culture: The culture method of primary osteoblast was the same as that of the previous test. OB2 was inoculated at density of 1×10^4 cells/cm^2. […] Culture medium was changed every 48 hours and the medicines were added. Total RNA of the cells was extracted one week later.
2. Extraction of RNA: The cells were digested with 0.25% trypsin, and were centrifuged at 1000 rpm for 5 min to collect cell pellets. Total RNA was extracted with TRIzol reagent (Gibco Co.) method.
3. Reverse transcriptase polymerase chain reaction (RT-PCR): Access RT-PCR System kit (Promega) was used in the test, following the directions of the kit. The RT-PCR of the reaction mixture was performed in PCR analyzer (Bio-Rad Inc.) at 48° C. for 45 min. Inactivate enzyme at 94° C. for 2 min, then 30 cycles of PCR reaction: […] at 94° C. for degeneration, 1 min at 54° C. for annealing, 2 min at 72° C. for extension, and after the last cycle, 7 min at 72° C. for another extension. 9 μl PCR products were analyzed in 1.5% agarose gel electrophoresis. Then the bands were analyzed by image analysis system (Image Master VDS). Optical density value was calibrated by internal reference-Actin, and the calibration values were analyzed statistically.
4. Medicines: Each test medicine was formulated at the concentration of 0.1 mol/L, and sterilized by high pressure for later use. […] Calcium gluconate, Shanghai Huanghai Pharmaceutical Factory, 2.24 g was dissolved in 50 ml deionized water.

[5] = system: emasculated rat; conditions: in words

Row | Compound | Number of mineralization nodules [1] | ALP activity of osteoblast ([2]; Experiment 1) | ALP activity of osteoblast ([2]; Experiment 2) | ALP activity of osteoblast ([2]; Experiment 3) | A570 (X ± SD) ([3]; test I, 10^−3 mol/L) | A570 (X ± SD) ([3]; test I, 10^−5 mol/L) | A570 (X ± SD) ([3]; test I, 10^−7 mol/L) | A570 (X ± SD) ([3]; test I, 10^−9 mol/L) | A570 (X ± SD) ([3]; test II, 10^−3 mol/L) | A570 (X ± SD) ([3]; test II, 10^−5 mol/L) | A570 (X ± SD) ([3]; test II, 10^−7 mol/L) | A570 (X ± SD) ([3]; test II, 10^−9 mol/L) | A570 (X ± SD) ([3]; test III, 10^−3 mol/L) | A570 (X ± SD) ([3]; test III, 10^−5 mol/L) | A570 (X ± SD) ([3]; test III, 10^−7 mol/L) | A570 (X ± SD) ([3]; test III, 10^−9 mol/L) | level of α-COLI mRNA compared with control group [4] | also measured
1 | [Ca+2].[Cl-].[Cl-] [Calcium chloride] | 6.4 ± 1.673^& | 0.119 ± 0.039 U/mg of protein | 0.122 ± 0.08 U/mg of protein | 0.102 ± 0.008 U/mg of protein | 0.325 ± 0.052 | 0.277 ± 0.037 | 0.239 ± 0.005^& | 0.237 ± 0.005^& | 0.423 ± 0.028***^& | 0.324 ± 0.047^& | 0.268 ± 0.022^& | 0.292 ± 0.023 | 0.281 ± 0.014 | 0.268 ± 0.025^& | 0.229 ± 0.09 | 0.267 ± 0.016 |  | 
2 | Calcium gluconate | 6.2 ± 2.588^& | 0.115 ± 0.009 U/mg of protein | 0.140 ± 0.016 U/mg of protein | 0.107 ± 0.025 U/mg of protein | 0.381 ± 0.052 | 0.351 ± 0.039 | 0.267 ± 0.009*^& | 0.265 ± 0.025 | 0.359 ± 0.072**^& | 0.301 ± 0.051 | 0.268 ± 0.019*^& | 0.248 ± 0.017^& | 0.229 ± 0.021 | 0.242 ± 0.012 | 0.233 ± 0.021^$ | 0.229 ± 0.017 | no significant difference | Relative expression amount of α-COLI ([4]; one week, calibrated by β-Actin, X ± SD, n = 3): 1.2524 ± 0.377
3 | calcium L-threonate | 12.0 ± 3.742 | 0.156 ± 0.002 U/mg of protein | 0.208 ± 0.003 U/mg of protein | 0.164 ± 0.026 U/mg of protein | 0.458 ± 0.019 | 0.405 ± 0.085 | 0.401 ± 0.082 | 0.387 ± 0.087 | 0.486 ± 0.010 | 0.449 ± 0.041 | 0.371 ± 0.047 | 0.418 ± 0.047 | 0.386 ± 0.024 | 0.327 ± 0.034 | 0.338 ± 0.048 | 0.316 ± 0.073 | increased significantly | number of mineralization nodules versus other groups ([1]; within two weeks, in words): the largest; biomechanical parameters [5]: significantly increase; bone density [5]: significantly increase; content of bone calcium [5]: significantly increase; ALP activity of OB2 versus control group ([2]; in words): higher than that of control group; effect on proliferation of osteoblast ([3]; 10^−9-10^−3 mol/L, in words): promoting proliferation of osteoblast
